The results in this text go back to patent US10106542B2, “Substituted 6,7-dihydropyrazolo[1,5-a]pyrazines as negative allosteric modulators of mGluR2 receptors” (Janssen Pharmaceutica NV, priority 2013, dated 2018).

The target of one test is T1, human mGlu2 receptor (Homo sapiens, UniProt Q14416).
T1 construct: expressed in transfected cells; host or cells: CHO cells (membrane preparation)
The experiment in a line: [35S]GTPγS binding assay (mGluR2 negative allosteric modulation). In kind it is biochemical. The method, boiled down:
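Negative allosteric modulation read as [35S]GTPγS (0.1 nM) incorporation over 30 min at 30 °C, expressed as % of the response to an EC80-equivalent glutamate concentration. Assay used 7 μg human mGlu2 CHO membrane protein in HEPES pH 7.4 buffer with NaCl, MgCl2, GDP and saponin; bound label collected by filtration.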

The subject of test [1] is rat hippocampal brain slices. Briefly: Long-term potentiation in the dentate gyrus of hippocampal brain slices. In kind it is cell-based. As to conditions: 10 μM. The method, then: Recordings of fEPSPs were made from hippocampal brain slices using a multi-electrode array (MEA) biochip, and 3-dimensional-(3D) tip electrodes, according to a standard protocol. These recordings were used to monitor glutamate-mediated synaptic transmission (FIG. 4).
Subsequently, the effects of Co. No. 1 on synaptic function using long-term potentiation (LTP) protocols in the dentate gyms (Goeldner et. al., Neuropharmacology 2013, 64, 337-346) were evaluated.
Small magnitude LTP (110%) was induced using isolated glutamatergic-mediated fEPSP: trains of theta-burst stimulation that are known to induce LTP at these particular synapses were applied (Dinklo et al., J. Pharmacol. Exp. Ther. 2011, 336(2), 560-574). In the presence of 10 μM Co. No. 1, the magnitude of LTP was enhanced by 150% compared to baseline (p=0.005). […] At the end of the experiments, addition of 1 mM kynurenic acid to block glutamatergic neurotransmission, confirmed that the post-synaptic response is mediated by glutamate neurotransmission.

The next test concerns rats. The experiment in a line: Ro-4-1284 interaction test in rats. In kind it is in vivo, rat. As to conditions: Rattus norvegicus; p.o.; Ro-4-1284 1.25 mg/kg s.c.; cumulative score over 1 h; read-out: ED50 increase of palpebral opening to scores >25 (reversal of Ro-4-1284-induced palpebral ptose). The method, then: 5) Ro-4-1284 Interaction Test in Rats The relative ability of Co. No. 1 to increase palpebral opening was also studied in rats challenged with another monoamines depleting agent, viz. Ro-4-1284 (1.25 mg/kg, s.c.). Effects on body temperature immediately before the injection of Ro-4-1284 were also measured. The cumulative palpebral opening score (every 5 min over a 1-h period) was used for evaluation. The median cumulative palpebral opening in solvent-pretreated control animals (n=70) was 18; a scores >25 occurred in only 1.4% of these control animals and was adopted as all-or-none criterion for drug-induced reversal of the Ro-4-1284-induced palpebral ptose. Co.

The subject of another test is Wiga rats. The experiment in a line: Reserpine interaction test in rats. In kind it is in vivo, rat. As to conditions: Rattus norvegicus, Wiga rats. The method, then:
4) Reserpine Interaction Test in Rats
It was investigated to what extent the mydriatic action of test compounds was sufficient to counteract the miosis induced by the monoamines-depleting agent reserpine (10 mg/kg; SC) in Wiga rats.
The effects are illustrated in FIG. 3. […] The reference mGlu2 NAMs RO-4995819 (40 mg/kg, p.o.), RO-4491533 (40 mg/kg, p.o.; 10 mg/kg, s.c.) and [CAS 579473-69-1]

In general, Emax refers to the maximal effect, on the per cent scale that the assay sets. What is called ED50 is the midpoint of the dose-response relation.

Read-outs that look alike come from different tables or passages of the source.

T1 sequence (Q14416 19-872): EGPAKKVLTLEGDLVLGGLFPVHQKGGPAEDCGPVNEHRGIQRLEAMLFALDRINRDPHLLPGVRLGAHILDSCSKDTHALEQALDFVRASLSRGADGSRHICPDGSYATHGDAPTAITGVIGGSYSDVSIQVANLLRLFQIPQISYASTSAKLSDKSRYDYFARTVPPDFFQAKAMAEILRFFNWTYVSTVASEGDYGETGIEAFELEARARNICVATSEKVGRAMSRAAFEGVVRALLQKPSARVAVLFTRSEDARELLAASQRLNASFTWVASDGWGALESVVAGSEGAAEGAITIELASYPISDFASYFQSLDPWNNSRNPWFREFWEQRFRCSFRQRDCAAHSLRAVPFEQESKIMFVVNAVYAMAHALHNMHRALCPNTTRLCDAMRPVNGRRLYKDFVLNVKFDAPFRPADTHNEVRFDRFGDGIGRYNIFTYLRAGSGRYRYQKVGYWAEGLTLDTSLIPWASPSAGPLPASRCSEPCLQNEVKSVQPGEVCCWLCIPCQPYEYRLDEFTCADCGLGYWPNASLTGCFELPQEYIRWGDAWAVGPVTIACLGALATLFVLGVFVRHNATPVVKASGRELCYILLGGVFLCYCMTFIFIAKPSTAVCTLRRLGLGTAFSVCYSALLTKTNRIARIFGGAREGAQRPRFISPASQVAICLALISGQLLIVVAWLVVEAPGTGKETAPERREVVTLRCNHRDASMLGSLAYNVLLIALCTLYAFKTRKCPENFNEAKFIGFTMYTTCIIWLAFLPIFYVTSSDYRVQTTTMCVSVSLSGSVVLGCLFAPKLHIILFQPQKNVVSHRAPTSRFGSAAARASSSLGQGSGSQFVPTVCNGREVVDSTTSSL

Take `Cc1cc(-c2cnn3c2C(=O)N(c2ccc(C(F)(F)F)cc2)C[C@@H]3C)ccn1` [compound 1, (7S)-7-Methyl-3-(2-methylpyridin-4-yl)-5-[4-(trifluoromethyl)phenyl]-6,7-dihydropyrazolo[1,5-a]pyrazin-4(5H)-one]: at human mGlu2 receptor (membranes from CHO cells transfected with human mGlu2 receptor, glutamate 60 μM, pIC50 = −log IC50 (M)), the “GTPγS - hmGluR2 anGT pIC50” value is recorded as 8.05. Besides, the Emax at human mGlu2 receptor (relative maximal effect: maximal % inhibition relative to the control glutamate response, read-out: GTPγS - hmGluR2 anGT Emax) stood at 106%. In addition, the “post-theta potentiation (PTP)” value in test [1] (vehicle 120%, p=0.01, 22 slices from 4 SD rats) amounted to 160%. Moreover, in test [1] (weak theta-burst stimulation, p=0.005, control LTP 110%), the “magnitude of LTP compared to baseline” value is 150%. Moreover, the ED50 in the test on rats was 0.51 mg/kg; with Wiga rats (p.o., -1 h, reserpine 10 mg/kg SC, read-out: ED50 reversal of reserpine-induced miosis) it was 9.4 mg/kg; in the test with Wiga rats (p.o., -1 h, reserpine 10 mg/kg SC, read-out: ED50 reversal of reserpine-induced ptosis), 0.78 mg/kg; in the test with Wiga rats (p.o., -1 h, reserpine 10 mg/kg SC, read-out: ED50 reversal of reserpine-induced sedation) it was 7.1 mg/kg; in the test on Wiga rats (p.o., -4 h, reserpine 10 mg/kg SC, read-out: ED50 reversal of reserpine-induced miosis), 9.4 mg/kg; in the test on Wiga rats (p.o., -4 h, reserpine 10 mg/kg SC, read-out: ED50 reversal of reserpine-induced ptosis), 0.78 mg/kg. Besides, the ED50 with Wiga rats (p.o., -4 h, reserpine 10 mg/kg SC, read-out: ED50 reversal of reserpine-induced sedation) was 14 mg/kg; in the test with Wiga rats (po, -1 h, read-out: ED50 mydriasis before the reserpine challenge) it was 1.55 mg/kg; with Wiga rats (po, -4 h, read-out: ED50 mydriasis before the reserpine challenge) it was 0.89 mg/kg; in the test on Wiga rats (po, Time 60, reserpine 10 mg/kg SC, read-out: ED50, reversal of reserpine-induced ptosis) it was 0.67 mg/kg; in the test with Wiga rats (po, Time 240, reserpine 10 mg/kg SC, read-out: ED50, reversal of reserpine-induced ptosis), 0.89 mg/kg; in the test with Wiga rats (sc, Time 60, reserpine 10 mg/kg SC, read-out: ED50, reversal of reserpine-induced ptosis), 1.01 mg/kg. Besides, the ED50 in the test with Wiga rats (sc, read-out: ED50 mydriasis before the reserpine challenge) amounted to 1.78 mg/kg; with Wiga rats (sc, reserpine 10 mg/kg SC, read-out: ED50 reversal of reserpine-induced miosis), 4.1 mg/kg; with Wiga rats (sc, reserpine 10 mg/kg SC, read-out: ED50 reversal of reserpine-induced ptosis), 1.03 mg/kg; in the test on Wiga rats (sc, reserpine 10 mg/kg SC, read-out: ED50 reversal of reserpine-induced sedation) it was 9.4 mg/kg.
